Values of other authors in US20230165822A1, “URINARY ALKALIZING MEDICINAL AND/OR PHARMACEUTICAL COMPOSITION FOR THE ORAL TREATMENT OF INTERSTITIAL CYSTITIS / BLADDER PAIN SYNDROME (IC/BPS) AND FORMULATION THEREOF” (priority 2020, published 2023).

Settings: in vivo

## CC(=O)/N=c1/sc(S(N)(=O)=O)nn1C [Methazolamide]
  share reaching the bladder: only a fraction
